Experimental data: patent publication US10106577B2, “Agonists of neurotrophin receptors and their use as medicaments” (BIONURE FARMA, S.L., priority 2010, dated 2018)
Entries after “also recorded” stand apart in the source; their conditions may differ.

Assays:
PC12 cells = assay: Receptor activation assay (PC12 differentiation with anti-TrkA antibody); format: cell-based
Experimental: The hypothesis that G79, G80, and G81 can act through the binding to the extracellular portion of TrkA (binding site) and activate the tyrosine kinase receptor was tested by treating the PC12 cells with the small chemicals in combination with the antibody anti-TrkA or the K252a, a tyrosine kinase inhibitor. For this purpose PC12 cells were plated into collagen-coated 24-wells plates with 2.5% FBS and after 72 hrs were incubated with the small molecules alone or in combination with anti-TrkA antibody (AbCam, 1:2000) or K252a. NGF (100 ng/ml) was used as control and added alone or in combination with anti-TrkA antibody or K252a. The number of differentiated cells was evaluated after three days of treatment. The cell count was done in three randomly selected fields with 100 cells.

SH-SY5Y cells = assay: Parkinson's disease in vitro model (MPTP stress, MTT); format: cell-based, human; settings: MPTP 100 μM, 24 hrs; pre-treated 3 hours; BDNF 20 ng/ml
Experimental: The human neuroblastoma cell line SH-SY5Y was maintained in culture with 50% Ham's F12 medium and 50% EMEM medium, supplemented with 10% FBS, […] L-glutamine and 1% penicillin/streptomycin. The cell culture was maintained in a humidified atmosphere of 95% air and CO2 at 37° C.
The SH-SY5Y cells after differentiation to neuronal phenotype with retinoic acid, were pre-treated for 3 hours with the test compounds at different concentrations (20 ng/ml, 100 ng/ml, 2 μg/ml, 20 μg/ml and 50 μg/ml) or BDNF (20 ng/ml) as a positive control. Then 1-methyl-4-phenyl-1,2,3,6-tetrahydropyridine (MPTP) (100 μM) was added and incubated for 24 hrs. The number of surviving cells was determined the day after by 3-(4,5-dimethylthiazol-2-yl)-2,5-diphenyltetrazolium bromide (MTT) assay.

[1] = tested on: TrkB and p75 on SH-SY5Y cells; assay: Cytometry binding assay, competition BDNF/G79-FITC in SH-SY5Y; set-up: species or system human; settings: growing concentrations of BDNF
Experimental: In order to assess the binding of G79 to the TrkA (PC12 cells) and TrkB receptors (SH-SY5Y), we performed competitive binding assays by flow cytometry. In order to assess the binding competition between p75 and TrkA, PC12 cells expressing both TrkA and p75 receptors were cultivated in normal growth medium. After detaching cells by trypsin solution, 200,000 cells/well were added to tubes for the following incubations. One tube contains control untreated cells. In the other tubes, cells were pre-incubated for 45 minutes with different concentrations of NGF (0-10-20-50-100 ng/ml), that can directly bind both TrkA and p75 receptors, blocking the possible binding of G79 if it competes for the same receptors. Then, without washing the cells, G79 conjugated with FITC fluorescence (100 ng/ml) was added and so incubated the cells for 1 hour. Samples were read in a cytometer (FCAScan).
To detect the binding separately on both receptors, a prior incubation of cells (before NGF incubation) with blocking antibodies was made. The cells were preincubated for 1 hour with blocking antibody anti-p75 (1:100; Chemicon Int.), to detect the binding on TrkA, or blocking antibody anti-TrkA (1:200; AbCam) to detect the binding on p75. […] All the results are expressed as mean channel fluorescence (MCF), which is a measure of the cell surface fluorescence produced by G79-FITC binding.

mice affected by EAE = assay: Experimental autoimmune encephalomyelitis (EAE) model of MS; format: in vivo, C57BL/6 mice
Experimental: The effect of G79 was tested in the animal model of MS, the experimental autoimmune encephalomyelitis (EAE), by performing a preventive trial (in which the therapy starts at the time of the induction of the disease) and a curative trial (in which the therapy starts when the animals are already suffering from the disease). Female C57BL/6 mice from Harlan (8-12 weeks old) were immunized subcutaneously in both hind pads with 300 μg of myelin oligodendrocyte glycoprotein (MOG) peptide 35-55 (Spikem, Firenze) emulsified with 50 μg of Mycobacterium tuberculosis (H37Ra strain; Difco, Detroit, Mich.) in incomplete Freund's adjuvant (IFA) as previously described in Palacios et al., 2007. The mice were injected intraperitoneally with Pertussis toxin (Sigma) (500 ng) at the time of immunization and 2 days later. The animals were weighted and inspected for clinical signs of disease on a daily basis by a blinded observer. The severity of the disease EAE was assessed for 30 days according to the following scale: 0=normal; 0.5=mild limp tail; 1=limp tail; 2=mild paraparesis of the hind limbs, unsteady gait; 3=moderate paraparesis, voluntary movements still possible; 4=paraplegia or tetraparesis; 5=moribund state. At the end of the study, the mice were anesthetized and perfused intracardially with 4% of paraformaldehyde in 0.1 M phosphate buffer (pH 7.6). The brains, spinal cords and spleens were dissected and either fixed or frozen until use. Also serum was obtained from all the animals included in the study. This procedure was approved by the University of Barcelona Committee on Animal Care.
Two different experiments were performed to assess both the preventive effect and curative effect of G79, compared to other drugs targeting neurotrophin pathway (Gambogic amide and Xaliproden) or one of the first line therapy for the treatment of MS, i.e., Glatiramer acetate.
For the preventive trial, 10 animals were treated with intraperitoneal injection of G79 at the concentration of 40 mg/kg, 10 animals were treated with intraperitoneal injection of G79 at the concentration of 100 mg/kg, 10 animals were treated with intraperitoneal injection of Gambogic amide at the concentration of 2 mg/kg, 10 animals were treated with oral administration of Xaliproden at the concentration of 10 mg/kg. As both Gambogic amide and Xaliproden were diluted with different percentage of DMSO, 5 animals were treated with intraperitoneal injection of placebo (physiologic solution plus 1% DMSO) and other 5 animals were treated with placebo oral (physiologic solution plus 2.5% DMSO), respectively. The treatments were performed daily, starting after the immunization day.
For the curative trial, to reduce the discrepancy between the oral administration and intraperitoneal injections, as stress can deeply affect the development of the clinical scores in animals, all the treatments were performed by intraperitoneal injections. For this study, 8 animals were treated with G79 at the concentration of 40 mg/kg, 8 animals were treated with G79 at the concentration of 100 mg/kg, 8 animals were treated with Gambogic amide at the concentration of 2 mg/kg, 8 animals were treated with Xaliproden at the concentration of 10 mg/kg, 8 animals were treated with Glatiramer acetate at the concentration of 5 mg/kg, 8 animals were treated with placebo (physiologic solution plus 2.5% DMSO). The treatments were performed daily starting after the increase of the clinical score at score 2 (after the second day at this score).

[2] = in combination with anti-TrkA antibody (1:2000)
[3] = preventive trial, 100 mg/Kg i.p.

SMILES | number of differentiated cells (PC12 cells; [2]) | number of differentiated cells (PC12 cells; treatment alone) | protection of neuronal cells against MPTP (surviving cells, MTT) (SH-SY5Y cells) | competition with BDNF for binding (MCF of G79-FITC) [1] | therapeutic effect in ameliorating the clinical score (in words) (mice affected by EAE; curative trial, 100 mg/Kg i.p.) | clinical score (mice affected by EAE; curative trial, 100 mg/Kg i.p., 16th day) | clinical score (mice affected by EAE; curative trial, 100 mg/Kg i.p., day 19th) | clinical score (mice affected by EAE; curative trial, 100 mg/Kg i.p., day not printed (between day 16th and 23rd)) | delaying the disease, comparison of the doses (mice affected by EAE; [3]) | final clinical score at day 30th (mice affected by EAE; [3]) | onset of the disease (clinical score) (mice affected by EAE; preventive trial, G79 40 and 100 mg/kg i.p. daily)
CC(C)CN(CC(=O)N(CCc1ccc(S(N)(=O)=O)cc1)CC(N)=O)C(=O)CNCCN1CCCC1 [Compound G81, [N-(2-(1-Pyrrolidinyl)ethyl)glycyl]-[N-(2-methylpropyl)glycyl]-N-[2-(4′-sulfamoylphenyl)ethyl]glycinamide] | 16.5±5.9 | 14.1±3.3 | Prevent Neuronal Death | – | – | – | – | – | – | – | –
CC(C)CN(CC(=O)N(CCc1ccc(S(N)(=O)=O)cc1)CC(N)=O)C(=O)CNCCc1ccccc1F [Compound G80, [N-(2-(2′-Fluorophenyl)ethyl)glycyl]-[N-(2-methylpropyl)glycyl]-N-[2-(4′-sulfamoylphenyl)ethyl]glycinamide] | 14.6±4.1 | 15.1±6.3 | Prevent Neuronal Death | – | – | – | – | – | – | – | –
CC(C)CN(CC(=O)N(CCCN1CCCC1=O)CC(N)=O)C(=O)CNCCc1ccccc1F [Compound G79, [N-(2-(2′-Fluorophenyl)ethyl)glycyl]-[N-(2-methylpropyl)glycyl]-N-[3-(2′-oxopyrrolidinyl)propyl]glycinamide] | 19.6±8.1 | 11.5±2.8 | Prevent Neuronal Death; also recorded: significant protection of neuronal cells | competes with BDNF to one of its receptors | best therapeutic effect in ameliorating the clinical score | 2.8±1.2 | 1.75±1 | 1.6±0.8 | more effective in delaying the disease | lower compared to placebo treated animals | delay in the presence of the disease, although not significant
